From PMC9206500 (Journal of medicinal chemistry, 2021) come the findings set out here.

Bounds are passed on as bounds.

The subject of one assay is A375/TxR cells. In words: Cell cycle analysis by flow cytometry. The format is cell-based, human. As to conditions: 24 h; controls 10 nM, 60c 2.5, 5, 10 nM. On the technique in general: In flow cytometry, cells or beads pass a laser one at a time.
The next assay concerns M14/LCC6MDR1. Put plainly: MTS cell proliferation assay, M14/LCC6MDR1. The format is cell-based. The note with it: Homo sapiens, 72 h, read-out: IC50, M14/LCC6MDR1. On the technique in general: Tetrazolium assays rely on reduction of a dye to a coloured formazan, in cell work by metabolically active cells.

For `COc1cc2c(c(OC)c1OC)-c1ccc(OC)c(=O)cc1[C@@H](NC(C)=O)CC2` [colchicine], the “effect on cell cycle distribution” value in the assay on A375/TxR cells was “normal cell cycle progression”. Also, the IC50 in the assay on M14/LCC6MDR1 was above 1000 nM.
